# According to ChEMBL document CHEMBL1201862, “PubChem BioAssay data set” (2004):
#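 Protocol summary: plate cells (96-well), add compound at 5 concentrations, incubate 48 h, interpolate endpoints linearly. GI50 marks 50% less growth.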 Active and inactive are the calls of the source. No stated cut-off is given here; in the data, active = GI50 up to about 1.1 µM and inactive = higher.
# How the values were obtained:
# Assay in all cases: inhibition of tumour cell growth, NCI panel, 48 h
# [1] = tested on: HCT-116
# [2] = tested on: MDA-MB-435
# [3] = tested on: Hs-578T
# [4] = tested on: RPMI-8226
# [5] = tested on: A498
# [6] = tested on: HOP-92
# [7] = tested on: DU-145
# [8] = tested on: SF-268
# [9] = tested on: CAKI-1
# [10] = tested on: NCI-H23
# [11] = tested on: K562
# [12] = tested on: RXF 393
# [13] = tested on: SK-MEL-28
# [14] = tested on: HL-60
# [15] = tested on: U-251
# [16] = tested on: SF-295
# [17] = tested on: HCT-15
# [18] = tested on: TK-10
# [19] = tested on: UACC-257
# [20] = tested on: PC-3
# [21] = tested on: CCRF-CEM
# [22] = tested on: OVCAR-5
# [23] = tested on: SK-MEL-5
# [24] = tested on: LOX IMVI
# [25] = tested on: SK-MEL-2
# [26] = tested on: OVCAR-8
# [27] = tested on: NCI/ADR-RES
# [28] = tested on: KM12
# [29] = tested on: MDA-N
# [30] = tested on: T47D
# [31] = tested on: MCF7
# [32] = tested on: NCI-H460
# [33] = tested on: OVCAR-3
# [34] = tested on: SK-OV-3
# [35] = tested on: MDA-MB-231
# [36] = tested on: ACHN
# [37] = tested on: IGROV-1
# [38] = tested on: M14
# [39] = tested on: NCI-H522
# [40] = tested on: SF-539
# [41] = tested on: UO-31
# [42] = tested on: SR
# [43] = tested on: MOLT-4
# [44] = tested on: HCC 2998
# [45] = tested on: HT-29
# [46] = tested on: EKVX
# [47] = tested on: NCI-H226
# [48] = tested on: 786-0
# [49] = tested on: HOP-62
# [50] = tested on: OVCAR-4
# [51] = tested on: SW-620
structure (smiles),measurement,setting,value
CCCCC1Cc2ccccc2-c2n1c1ccccc1[n+]2C (stereo unspecified),GI50,[1],17.6 µM (inactive)
same,GI50,[2],10.3 µM (inactive)
same,GI50,[3],12.1 µM (inactive)
same,GI50,[4],1.94 µM (inactive)
same,GI50,[5],23.6 µM (inactive)
same,GI50,[6],20.4 µM (inactive)
same,GI50,[7],33.7 µM (inactive)
same,GI50,[8],11.4 µM (inactive)
same,GI50,[9],> 100 µM (inactive)
same,GI50,[10],2.17 µM (inactive)
same,GI50,[11],2.49 µM (inactive)
same,GI50,[12],13.3 µM (inactive)
same,GI50,[13],11.3 µM (inactive)
same,GI50,[14],3.99 µM (inactive)
same,GI50,[15],3.1 µM (inactive)
same,GI50,[16],6.92 µM (inactive)
same,GI50,[17],95.5 µM
same,GI50,[18],22.8 µM (inactive)
same,GI50,[19],1.87 µM (inactive)
same,GI50,[20],5.93 µM (inactive)
same,GI50,[21],10.9 µM (inactive)
same,GI50,[22],42.9 µM (inactive)
same,GI50,[23],4.54 µM (inactive)
same,GI50,[24],10.4 µM (inactive)
same,GI50,[25],8.53 µM (inactive)
same,GI50,[26],21.9 µM (inactive)
same,GI50,[27],> 100 µM (inactive)
same,GI50,[28],9.55 µM (inactive)
same,GI50,[29],12.3 µM (inactive)
same,GI50,[30],0.959 µM (active)
same,GI50,[31],8.77 µM (inactive)
same,GI50,[32],16.2 µM (inactive)
same,GI50,[33],4.15 µM (inactive)
same,GI50,[34],35.9 µM (inactive)
same,GI50,[35],22.2 µM (inactive)
same,GI50,[36],37.9 µM (inactive)
same,GI50,[37],17.3 µM (inactive)
same,GI50,[38],23.3 µM (inactive)
same,GI50,[39],3.87 µM (inactive)
same,GI50,[40],27.8 µM (inactive)
same,GI50,[41],66.7 µM (inactive)
same,GI50,[42],7.67 µM (inactive)
same,GI50,[43],12.3 µM (inactive)
same,GI50,[44],5.47 µM (inactive)
same,GI50,[45],10 µM (inactive)
same,GI50,[46],25.9 µM (inactive)
same,GI50,[47],22.3 µM (inactive)
same,GI50,[48],38.2 µM (inactive)
same,GI50,[49],24.9 µM (inactive)
same,GI50,[50],24.5 µM (inactive)
same,GI50,[51],23.7 µM (inactive)
